The values that follow are results of earlier work, collected in paper PMC6050274, “Buparlisib is a brain penetrable pan-PI3K inhibitor” (Scientific Reports, 2018).

Some results are limits rather than exact numbers.

For the series the following is noted: cited from earlier work.
`FC(F)c1nc2ccccc2n1-c1nc(N2CCOCC2)nc(N2CCOCC2)n1` [ZSTK474]: the brain-plasma ratio is listed as ≤ 1.
On to `COC1(c2sc3c(N4CCOCC4)nc(-c4cnc(N)nc4)nc3c2C)COC1` [GNE-317], for which the brain-plasma ratio is recorded as ≤ 1.
Consider `Cn1c(=O)n(-c2ccc(C(C)(C)C#N)cc2)c2c3cc(-c4cnc5ccccc5c4)ccc3ncc21` [NVP-BEZ235], for which the brain-plasma ratio is recorded as ≤ 1.
